# Experimental data published in ChEMBL document CHEMBL1201862, “PubChem BioAssay data set” (2004).
#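 Interpolation was linear, between the two tested concentrations surrounding the appropriate level; five concentrations were tested over 48 hours in 96-well plates. GI50 marks 50% less growth.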 Active and inactive are the calls of the source. No stated cut-off is given here; in the data, active = GI50 up to about 1.1 µM and inactive = higher.
# Columns and labels:
# Experiment in all cases: growth of human tumour cells (NCI), 48 h
# A498 = tested on: A498
# A549 = tested on: A549
# ACHN = tested on: ACHN
# CAKI-1 = tested on: CAKI-1
# EKVX = tested on: EKVX
# HCC 2998 = tested on: HCC 2998
# HOP-62 = tested on: HOP-62
# HOP-92 = tested on: HOP-92
# KM-20L2 = tested on: KM-20L2
# MCF7 = tested on: MCF7
# OVCAR-3 = tested on: OVCAR-3
# OVCAR-4 = tested on: OVCAR-4
# OVCAR-8 = tested on: OVCAR-8
# RPMI-8226 = tested on: RPMI-8226
# RXF 393 = tested on: RXF 393
# SF-295 = tested on: SF-295
# SN12C = tested on: SN12C
# SNB-19 = tested on: SNB-19
# SW-620 = tested on: SW-620
# U-251 = tested on: U-251
Structure (SMILES),GI50 (A498),GI50 (A549),GI50 (ACHN),GI50 (CAKI-1),GI50 (EKVX),GI50 (HCC 2998),GI50 (HOP-62),GI50 (HOP-92),GI50 (KM-20L2),GI50 (MCF7),GI50 (OVCAR-3),GI50 (OVCAR-4),GI50 (OVCAR-8),GI50 (RPMI-8226),GI50 (RXF 393),GI50 (SF-295),GI50 (SN12C),GI50 (SNB-19),GI50 (SW-620),GI50 (U-251)
S=P(N1CC1)(N1CC1)N1CC1 [THIOTEPA],126 µM (inactive),50.4 µM (inactive),14.6 µM (inactive),30.3 µM (inactive),234 µM (inactive),111 µM (inactive),31.3 µM (inactive),112 µM (inactive),175 µM (inactive),30.7 µM (inactive),169 µM (inactive),188 µM (inactive),110 µM (inactive),176 µM (inactive),101 µM (inactive),33.1 µM (inactive),35.5 µM (inactive),115 µM (inactive),140 µM (inactive),58.7 µM (inactive)
CC[N+]1(C)CCC(O)(/C=C/c2ccccc2)C(C(=O)/C=C/c2ccccc2)C1 (stereo not given),21.1 µM (inactive),20.3 µM (inactive),11.1 µM (inactive),1.85 µM (inactive),22.5 µM (inactive),16.7 µM (inactive),19.6 µM (inactive),9.46 µM (inactive),18.3 µM (inactive),3.05 µM (inactive),9.04 µM (inactive),13.7 µM (inactive),9.1 µM (inactive),0.706 µM (active),7.62 µM (inactive),16.7 µM (inactive),7.23 µM (inactive),15.3 µM (inactive),2.45 µM (inactive),8 µM (inactive)
C[C@H]1CC[C@H](NC(=O)N(CCCl)N=O)CC1,53 µM (inactive),51.3 µM (inactive),49.4 µM (inactive),27.2 µM (inactive),78.3 µM (inactive),44 µM (inactive),48.3 µM (inactive),24.4 µM (inactive),56.4 µM (inactive),50.4 µM (inactive),42.1 µM (inactive),31.6 µM (inactive),53.2 µM (inactive),31.6 µM (inactive),36 µM (inactive),13.4 µM (inactive),40.4 µM (inactive),38.7 µM (inactive),31.3 µM (inactive),26.7 µM (inactive)
Cc1ccccc1C1=C/C(=C(\SS/C(C(=O)c2ccc(OCC(=O)O)c(Cl)c2Cl)=C2\C=C(c3ccccc3C)SS2)C(=O)c2ccc(OCC(=O)O)c(Cl)c2Cl)SS1,32.4 µM (inactive),46.9 µM (inactive),23.2 µM (inactive),37.6 µM (inactive),37.8 µM (inactive),39.4 µM (inactive),51.6 µM (inactive),5.51 µM (inactive),37.9 µM (inactive),31.4 µM (inactive),16.5 µM (inactive),21.1 µM (inactive),26.3 µM (inactive),21.5 µM (inactive),22.4 µM (inactive),31.3 µM (inactive),20.1 µM (inactive),22.5 µM (inactive),26.5 µM (inactive),8.43 µM (inactive)
